Publication PMC4412158 (Nature chemical biology, 2014)

Target: T1, phosphoglycerate kinase 1 (hPGK1) (Homo sapiens, UniProt P00558)
T1 sequence (P00558 2-417): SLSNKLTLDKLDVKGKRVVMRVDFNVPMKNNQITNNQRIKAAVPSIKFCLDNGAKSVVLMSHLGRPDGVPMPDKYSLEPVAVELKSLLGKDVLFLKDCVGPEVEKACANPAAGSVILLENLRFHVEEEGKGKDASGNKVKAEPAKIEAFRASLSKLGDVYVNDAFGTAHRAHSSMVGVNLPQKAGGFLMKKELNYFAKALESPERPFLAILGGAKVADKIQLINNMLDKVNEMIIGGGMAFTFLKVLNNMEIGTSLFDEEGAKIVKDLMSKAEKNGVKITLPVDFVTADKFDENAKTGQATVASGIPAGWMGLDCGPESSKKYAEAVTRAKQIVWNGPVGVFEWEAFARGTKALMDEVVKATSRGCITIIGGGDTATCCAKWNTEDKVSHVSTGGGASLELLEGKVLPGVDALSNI
Experiment: co-crystal structure hPGK1-3PG-TZ at […] Å
Format: binding

## COc1cc2nc(N3CCN(C(=O)C4CCCO4)CC3)nc(N)c2cc1OC (racemic) [TZ, terazosin]
  co-crystal structure hPGK1-3PG-TZ at 2.1 Å: we obtained the ternary co-crystallization complexes for both the mouse and the human Pgk1-3PG-TZ
